Values of other authors in patent publication US6426407B1, “Residues for binding third strands to complementary nucleic acid duplexes of any base pair sequence” (Codon Pharm., priority 1995, dated 2002).

How the values were obtained:
[1] = test system: center strand purine G; further: key: a '+' means the bases are complementary or correspondent; a '−' means they are not complementary or not correspondent
[2] = test system: center strand purine A; further: key: a '+' means the bases are complementary or correspondent; a '−' means they are not complementary or not correspondent
[3] = test system: homopolymer GC duplexes, homopolymer AT duplexes, and mixed base-pair duplexes with alternating AG in the center strand

Compound | third strand base complementary to center strand purine [1] | third strand base complementary to center strand purine [2] | triplex formation [3]
Nc1ncnc2nc[nH]c12 [A, adenine] | − | + | 
Nc1cc[nH]c(=O)n1 [C, cytosine] | + | − | 
Nc1nc2nc[nH]c2c(=O)[nH]1 [G, guanine] | + | − | 
OC[C@H]1O[C@@H](n2cnc3c(O)ncnc32)[C@H](O)[C@@H]1O [I, inosine] | + | + | forms triplexes
